Laboratory results: patent publication US5169845A, “Piperazine derivatives” (John Wyeth & Brother Limited, priority 1990, dated 1992)

Tests used:
5-HT1A receptor = target: T1, 5-HT1A receptor (Rattus norvegicus, UniProt P19327); test: 5-HT1A receptor binding activity in rat hippocampal membrane homogenate
T1 construct: rat hippocampal membrane homogenate; from tissue; host or cells: rat hippocampal membrane homogenate
T1 sequence (P19327 1-422): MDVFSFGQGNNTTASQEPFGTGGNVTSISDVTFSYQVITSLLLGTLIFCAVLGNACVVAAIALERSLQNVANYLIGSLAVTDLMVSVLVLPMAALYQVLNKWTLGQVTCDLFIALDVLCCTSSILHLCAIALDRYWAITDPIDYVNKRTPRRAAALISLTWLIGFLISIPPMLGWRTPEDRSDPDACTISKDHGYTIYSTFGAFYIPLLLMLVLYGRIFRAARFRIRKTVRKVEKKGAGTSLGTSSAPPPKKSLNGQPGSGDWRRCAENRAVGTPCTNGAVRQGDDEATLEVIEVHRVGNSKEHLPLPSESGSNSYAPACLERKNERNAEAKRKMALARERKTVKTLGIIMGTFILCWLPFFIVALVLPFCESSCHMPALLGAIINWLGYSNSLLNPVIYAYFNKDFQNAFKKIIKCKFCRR
Method: The compounds of the invention were tested for 5-HT1A receptor binding activity in rat hippocampal membrane homogenate by the method of B S Alexander and M D Wood, J Pharm Pharmacol, 1988, 40, 888-891.

α1 = test: affinity for the α1 site (procedure of A L Marrow et al); assay type: binding

Compound	IC50 (5-HT1A receptor) [nM]	IC50 (α1) [nM]
COc1ccccc1N1CCN(CCC(C(=O)N2CCCCCC2)c2cccs2)CC1 (stereo not shown) [Example 2, 2,3,4,5,6,7-Hexahydro-1-[2-(2-thiophenyl)-4-(1-(4-(2-methoxyphenyl)piperazinyl))]butyryl-1H-azepine]	0.8	147
COc1ccccc1N1CCN(CC(C(=O)NC(C)(C)C)c2ccccn2)CC1 (stereo not shown) [Example 1, N-tert-Butyl-3-[4-(2-methoxyphenyl)piperazin-1-yl]-2-(2-pyridyl)propanamide]	38	2900
